Data on 30 molecules can be found in patent EP4653435A1, “PRMT5-MTA INHIBITOR” (Suzhou Puhe Biopharma Co., Ltd., priority 2023, dated 2024).

The structures appear in SMILES notation. Like-named read-outs stand apart in the source and are kept apart here.

The subject of one assay is HCT116-MTAPdel. In words: 2D antiproliferative assay (CTG cell viability), MTAP-deficient cells. It counts as cell-based. The settings on record: for IC50: Homo sapiens; for HCT116WT IMTAPdel selectivity: ratio IC50 wild type / MTAPdel, antiproliferation. The procedure:
(§1) HCT116 wild-type and MTAP-deficient cells were cultured in McCoy's 5A medium containing 10% FBS and 1% penicillin-streptomycin, and cultured in a 37°C, 5% CO2 constant temperature incubator. 40 µL of cell suspension was introduced into each well of a 384-well microplate. 40 nL of different concentrations of test compounds were added to each well using an Echo, before culturing in a 37°C, 5% CO2 constant temperature incubator for 7-10 days. 40 µL of CTG solution (Promega, Cat No. G7573) was added to each well and incubated in a 37°C, 5% CO2 constant temperature incubator for 30 minutes in the dark.

The next assay deals with HCT116-MTAPwt. In words: 2D antiproliferative assay (CTG cell viability), wild-type cells. It counts as cell-based. Conditions: Homo sapiens, HCT-116, 7-10 days. The procedure: as §1
Setting [1] is: HCT-116, HCT116 MTAP-deficient cells, 7-10 days, CTG, read-out: HCT116-MTAPdel/IC50/nM.

As for `C[C@H]1CC[C@H](c2ccc3sc(CN(C)C)nc3c2)N(C(=O)C(=O)Nc2cnc(N)c3c2cnn3C)C1` (racemic) [Compound P14], the IC50 in the assay on HCT116-MTAPdel (setting [1]) was 11 nM; with HCT116-MTAPwt, 295 nM. Moreover, the “HCT116WT IMTAPdel selectivity” value in the assay with HCT116-MTAPdel is given as 27.
Consider `C[C@@H]1COC[C@H](c2ccc(-c3cncc(Cl)c3)cn2)N1C(=O)C(=O)Nc1cnc(N)c2c1cnn2C` [Compound P13b], for which the results for the IC50 in the assay with HCT116-MTAPdel (setting [1]) and in the assay on HCT116-MTAPwt were 2 nM and 506 nM, respectively. Moreover, the “HCT116WT IMTAPdel selectivity” value with HCT116-MTAPdel was 253.
In the case of `Cn1ncc2c(NC(=O)C(=O)NC3COc4cc(C(F)(F)F)ccc43)cnc(N)c21` (stereo not shown) [Compound A1, reference compound], the IC50 in the assay with HCT116-MTAPdel (setting [1]) and with HCT116-MTAPwt was more than 10000 nM in each case.
For the molecule `C[C@H]1CC[C@H](c2ccc3sc(-c4cccnc4)nc3c2)N(C(=O)C(=O)Nc2cnc(N)c3c2cnn3C)C1` (racemic) [Compound P17], the IC50 in the assay with HCT116-MTAPdel (setting [1]) amounted to 8 nM; in the assay with HCT116-MTAPwt, 606 nM. The “HCT116WT IMTAPdel selectivity” value in the assay on HCT116-MTAPdel is recorded as 76.
On to `CCN(C(=O)C(=O)Nc1cnc(N)c2c1cnn2C)[C@H]1COCc2nc(C(F)(F)F)ccc21` [Compound P28a], for which the values for the IC50 with HCT116-MTAPdel (setting [1]) and in the assay on HCT116-MTAPwt were 986 nM and 2340 nM, respectively. Besides, the “HCT116WT IMTAPdel selectivity” value with HCT116-MTAPdel is 2.
In the case of `C[C@H]1COC[C@@H](c2ccc(-c3cncc(Cl)c3)cn2)N1C(=O)C(=O)Nc1cnc(N)c2c1cnn2C` [Compound P13a], the IC50 in the assay with HCT116-MTAPdel (setting [1]) was 616 nM; with HCT116-MTAPwt, more than 10000 nM. In addition, the “HCT116WT IMTAPdel selectivity” value in the assay with HCT116-MTAPdel was more than 16.
For `CN(C(=O)C(=O)Nc1cnc(N)c2c1cnn2C)[C@H]1COCc2nc(-c3cncc(Cl)c3)ccc21` [Compound H2a], the IC50 in the assay with HCT116-MTAPdel (setting [1]) is 224 nM; with HCT116-MTAPwt it was more than 10000 nM. Besides, in the assay with HCT116-MTAPdel, the “HCT116WT IMTAPdel selectivity” value is more than 45.
For `CN(C(=O)C(=O)Nc1cnc(N)c2c1cnn2C)[C@H]1COCc2nc(C(F)(F)F)ccc21` [Compound P9b], the results for the IC50 in the assay with HCT116-MTAPdel (setting [1]) and with HCT116-MTAPwt were 883 nM and more than 10000 nM, respectively. Also, the “HCT116WT IMTAPdel selectivity” value with HCT116-MTAPdel is given as more than 11.
With `C[C@H]1COC[C@@H](c2ccc(C(F)(F)F)cn2)N1C(=O)C(=O)Nc1cnc(N)c2c1cnn2C` [Compound P11a], the IC50 in the assay with HCT116-MTAPdel (setting [1]) was 1910 nM; in the assay with HCT116-MTAPwt, more than 10000 nM. Also, in the assay with HCT116-MTAPdel, the “HCT116WT IMTAPdel selectivity” value was more than 5.
As for `C[C@H](c1ncccn1)N(Cc1ccc(C(F)(F)F)cn1)C(=O)C(=O)Nc1cnc(N)c2c1cnn2C1CC1` [Compound P7], the IC50 in the assay on HCT116-MTAPdel (setting [1]) is 56 nM; in the assay with HCT116-MTAPwt it was 2520 nM. Further, in the assay with HCT116-MTAPdel, the “HCT116WT IMTAPdel selectivity” value is 45.
The corresponding values for `Cn1ncc2c(NC(=O)C(=O)N(C3CC3)[C@H]3COc4cc(C(F)(F)F)ccc43)cnc(N)c21` [Compound P21a] are 978 nM, more than 10000 nM and 10.
In the case of `CN(C(=O)C(=O)Nc1cnc(N)c2c1cnn2C)[C@H]1COc2cc(OC(F)(F)F)ccc21` [Compound P30b], the values for the IC50 in the assay on HCT116-MTAPdel (setting [1]) and in the assay with HCT116-MTAPwt were 191 nM and more than 10000 nM, respectively. In addition, in the assay on HCT116-MTAPdel, the “HCT116WT IMTAPdel selectivity” value is listed as more than 52.
`CN(C(=O)C(=O)Nc1cnc(N)c2c1cnn2C)[C@H]1COc2cc(-c3cncc(Cl)c3)ccc21` [Compound H1b]: the IC50 in the assay on HCT116-MTAPdel (setting [1]) was 300 nM; in the assay with HCT116-MTAPwt, more than 10000 nM. Besides, the “HCT116WT IMTAPdel selectivity” value in the assay on HCT116-MTAPdel is reported as more than 33.
On to `CCn1ncc2c(NC(=O)C(=O)N(C)[C@@H]3COCc4nc(C(F)(F)F)ccc43)cnc(N)c21` [Compound P25], for which the IC50 was 1260 nM with HCT116-MTAPdel (setting [1]) and more than 10000 nM in the assay on HCT116-MTAPwt. For the same molecule, in the assay on HCT116-MTAPdel, the “HCT116WT IMTAPdel selectivity” value is more than 8.
Consider `CN(C(=O)C(=O)Nc1cnc(N)c2c1cnn2C)[C@@H]1COc2cc(-c3cncc(Cl)c3)ccc21` [Compound H1a], for which the IC50 stood at 9 nM with HCT116-MTAPdel (setting [1]) and 2320 nM in the assay on HCT116-MTAPwt. The “HCT116WT IMTAPdel selectivity” value in the assay with HCT116-MTAPdel was 258.
On to `C[C@H]1CC[C@H](c2ccc3sc(C4CCOCC4)nc3c2)N(C(=O)C(=O)Nc2cnc(N)c3c2cnn3C)C1` (racemic) [Compound P18], for which the IC50 was 14 nM in the assay with HCT116-MTAPdel (setting [1]) and 900 nM in the assay with HCT116-MTAPwt. For the same molecule, the “HCT116WT IMTAPdel selectivity” value in the assay with HCT116-MTAPdel was found to be 64.
With `Cn1ncc2c(NC(=O)C(=O)N(C3CC3)[C@@H]3COc4cc(C(F)(F)F)ccc43)cnc(N)c21` [Compound P21b], the IC50 in the assay with HCT116-MTAPdel (setting [1]) was determined as 6 nM; with HCT116-MTAPwt, 847 nM. Further, in the assay with HCT116-MTAPdel, the “HCT116WT IMTAPdel selectivity” value is recorded as 141.
With `CN(C(=O)C(=O)Nc1cnc(N)c2c1cnn2C)[C@@H]1COc2cc(OC(F)(F)F)ccc21` [Compound P30a], the IC50 is 7 nM in the assay on HCT116-MTAPdel (setting [1]) and 1550 nM in the assay on HCT116-MTAPwt. In addition, the “HCT116WT IMTAPdel selectivity” value in the assay on HCT116-MTAPdel was found to be 221.
As to `[2H]C([2H])([2H])N(C(=O)C(=O)Nc1cnc(N)c2c1cnn2C)[C@@H]1COCc2nc(C(F)(F)F)ccc21` [Compound P27], the IC50 in the assay on HCT116-MTAPdel (setting [1]) was determined as 15 nM; in the assay on HCT116-MTAPwt, 2110 nM. The “HCT116WT IMTAPdel selectivity” value in the assay on HCT116-MTAPdel is 141.
As to `CCN(C(=O)C(=O)Nc1cnc(N)c2c1cnn2C)[C@H]1COc2cc(C(F)(F)F)ccc21` [Compound P19b], the figures for the IC50 with HCT116-MTAPdel (setting [1]) and in the assay with HCT116-MTAPwt were 261 nM and 3860 nM, respectively. Besides, the “HCT116WT IMTAPdel selectivity” value in the assay on HCT116-MTAPdel was determined as 15.
Turning to `CCn1ncc2c(NC(=O)C(=O)N(Cc3ccc(C(F)(F)F)cn3)[C@H](C)c3ncccn3)cnc(N)c21` [Compound P6], the IC50 stood at 18 nM in the assay on HCT116-MTAPdel (setting [1]) and 1300 nM in the assay with HCT116-MTAPwt. Moreover, the “HCT116WT IMTAPdel selectivity” value in the assay with HCT116-MTAPdel turned out to be 72.
Consider `C[C@H]1CC[C@H](c2ccc3sc(C(F)(F)F)nc3c2)N(C(=O)C(=O)Nc2cnc(N)c3c2cnn3C)C1` (racemic) [Compound P16], for which the results for the IC50 in the assay with HCT116-MTAPdel (setting [1]) and with HCT116-MTAPwt were 11 nM and 891 nM, respectively. The “HCT116WT IMTAPdel selectivity” value in the assay on HCT116-MTAPdel amounted to 81.
On to `C[C@@H]1CC[C@@H](c2ccc3scnc3c2)N(C(=O)C(=O)Nc2cnc(N)c3c2cnn3C)C1` [Compound P3a], for which the IC50 is 666 nM with HCT116-MTAPdel (HCT-116, read-out: HCT116-MTAPdel/IC50/nM) and more than 10000 nM in the assay on HCT116-MTAPwt.
As to `C[C@H]1COC[C@@H](c2ccc(OC(F)(F)F)cc2)N1C(=O)C(=O)Nc1cnc(N)c2c1cnn2C` (racemic) [Compound P12], the IC50 turned out to be 5 nM in the assay with HCT116-MTAPdel (setting [1]) and 607 nM in the assay with HCT116-MTAPwt. Also, the “HCT116WT IMTAPdel selectivity” value in the assay on HCT116-MTAPdel amounted to 121.
`C[C@H](c1ncccn1)N(Cc1ccc(-c2cncc(Cl)c2)cn1)C(=O)C(=O)Nc1cnc(N)c2c1cnn2C` [Compound P8]: the IC50 with HCT116-MTAPdel (setting [1]) turned out to be 4 nM; with HCT116-MTAPwt, 161 nM. In addition, in the assay with HCT116-MTAPdel, the “HCT116WT IMTAPdel selectivity” value is 40.
Consider `CSc1ccc2c(c1)OCC2N(C)C(=O)C(=O)Nc1cnc(N)c2c1cnn2C` (stereo not shown) [Compound P31], for which the IC50 in the assay on HCT116-MTAPdel (setting [1]) came to 21 nM; in the assay on HCT116-MTAPwt, 3580 nM. For the same molecule, the “HCT116WT IMTAPdel selectivity” value in the assay with HCT116-MTAPdel is recorded as 171.
On to `C[C@H](c1ncccn1)N(Cc1ccc(C(F)(F)F)cn1)C(=O)C(=O)Nc1cnc(N)c2cnn(C)c12` [Compound P4], for which the IC50 was 813 nM in the assay with HCT116-MTAPdel (setting [1]) and more than 10000 nM in the assay with HCT116-MTAPwt. Further, in the assay on HCT116-MTAPdel, the “HCT116WT IMTAPdel selectivity” value was more than 12.
The corresponding values for `CCn1ncc2c(NC(=O)C(=O)N(C)[C@@H]3COc4cc(C(F)(F)F)ccc43)cnc(N)c21` [Compound P24] are 2410 nM, more than 10000 nM and more than 4.
`CN(C(=O)C(=O)Nc1cnc(N)c2c1cnn2C)[C@H]1COc2cc(C(F)(F)F)ccc21` [Compound P2b]: the IC50 in the assay with HCT116-MTAPdel (setting [1]) is 118 nM; in the assay on HCT116-MTAPwt, more than 10000 nM. Besides, the “HCT116WT IMTAPdel selectivity” value in the assay with HCT116-MTAPdel came to 85.
Turning to `C[C@@H]1COC[C@H](c2ccc(C(F)(F)F)cn2)N1C(=O)C(=O)Nc1cnc(N)c2c1cnn2C` [Compound P11b], the IC50 in the assay on HCT116-MTAPdel (setting [1]) was 8 nM; with HCT116-MTAPwt, 427 nM. Further, the “HCT116WT IMTAPdel selectivity” value with HCT116-MTAPdel was 53.
